Laboratory results: PubChem BioAssay AID1981 (Southern Research Specialized Biocontainment Screening …, 2009)

System: S. Typhimurium PhoP-promoter GFP reporter counterscreen, fluorescence, 4 h
Assay: S. Typhimurium GFP fluorescence modified counterscreen for PhoP regulon inhibitor project dose response (AID 1981)

Row | SMILES | IC50
1 | CCCCCCCOC(=O)C[N+](C)(C)CCOC1CC2CCC1(C)C2(C)C (configuration not stated) | 40.6 µM
2 | CC[n+]1c(/C=C/N(C)c2ccccc2)n(-c2ccccc2)c2ccc(-c3nc4ccccc4s3)cc21 | 21.8 µM
3 | CN1CCc2c(sc(NC(=O)c3ccc([N+](=O)[O-])o3)c2C(N)=O)C1 | 33.7 µM
4 | CCCCCCCCCn1c2c(c(=N)c3c1CCC3)CCC2 | 84.5 µM
5 | CN1CCN(C(c2ccc(C(F)(F)F)cc2)c2cc(Cl)c3cccnc3c2O)CC1 (configuration not stated) | 30.2 µM
6 | O=C(N/N=C/c1cc(O)ccc1Br)c1cccnc1 | 43.5 µM
7 | C=CC1=C(C(=O)O)N2C(=O)[C@@H](NC(=O)/C(=N\O)c3csc(N)n3)[C@H]2SC1 (stereo in doubt) | 33.8 µM
8 | Cc1ccc(-c2csc(NC(=O)C[n+]3cc(-c4ccc(C)cc4)n4c3CCC4)n2)cc1 | 45.2 µM
9 | O=[N+]([O-])c1cc(/C=N/Nc2nc3ccccc3[nH]2)c(O)cc1O | 32.5 µM
10 | O=[N+]([O-])c1cc(O)c2ncccc2c1 | 15.8 µM
11 | O=CN/N=C/c1c(O)ccc2ccccc12 | 59.6 µM
12 | CN(Cc1ccccc1)CC(O)COc1ccc(CNCc2ccc(Cl)s2)cc1 (configuration not stated) | 117 µM
13 | COc1cccc(N(C(=O)c2ccco2)c2nc(-c3sc(NC(=O)c4ccco4)nc3C)cs2)c1 | 126 µM
14 | O=C(N/N=C/c1cccc([N+](=O)[O-])c1O)c1cccs1 | 20.4 µM
15 | CCN1/C(=C/C=C/c2sc3ccccc3[n+]2CC)Sc2ccccc21 | 37.2 µM
16 | CCCNC(=O)c1cn(CC)c2cc(N3CCN(C)CC3)c(F)cc2c1=O | 40.5 µM
17 | NC1=NC2(CCCCC2)N=C(Nc2ccc(Br)cc2)N1 | 138 µM
18 | Oc1c(I)cc(Cl)c2cccnc12 | 70.7 µM
19 | Nc1nc(N)c(Cc2ccc(Cl)cc2Cl)c(N)n1 | 149 µM
20 | Fc1ccccc1CCNCc1ccccc1 | 49.2 µM
21 | CCN(CC(=O)NC(C)(C)C)C(=O)COc1c(Cl)cc(Cl)c2ccc(C)nc12 | 136 µM

Row | SMILES | IC50
22 | O=C(N/N=C/c1cccs1)c1cccs1 | 81.4 µM
23 | CCCCCCCCCCCCCCCC[n+]1cccc(C(=O)N(CC)CC)c1 | 29.6 µM
24 | Nc1cc(Cl)c2nonc2c1[N+](=O)[O-] | 39.8 µM
25 | Cc1ccnc(NC(c2cccnc2)c2ccc3cccnc3c2O)c1 (configuration not stated) | 76.4 µM
26 | NC1CCN(c2nc3c(cc2F)c(=O)c(C(=O)O)cn3-c2ccc(F)cc2F)C1 (configuration not stated) | 0.53 µM
27 | NC1=NC[C@H](Cc2ccc(O)cc2)N1CCCCC1CCCCC1 | 84.1 µM
28 | COc1ccc(/C=N/Nc2cc(C)nc3c(C)cccc23)cc1 | 93.3 µM
29 | CCCCCCNC(=O)c1cn(CC)c2cc(N3CCN(C)CC3)c(F)cc2c1=O | 32 µM
30 | O=C(O)CCN1C(=O)CC(N2C(=O)/C(=C/c3ccc(Cl)cc3)SC2=S)C1=O (configuration not stated) | 22.5 µM
31 | Cc1sc2ncnc(N/N=C/c3ccccc3O)c2c1C | 69.2 µM
32 | C1=C(CCNCc2ccccc2)CCCC1 | 9.75 µM
33 | CCn1cc(C(=O)NCCN(C)C)c(=O)c2cc(F)c(N3CCN(C)CC3)cc21 | 123 µM
34 | CCCCCCCCCCCCCCCC[n+]1ccc(/C=N/O)cc1 | 30.6 µM
35 | CCCCC(CC)CN=C(N)NC(N)=NCCCCCCN=C(N)NC(N)=NCC(CC)CCCC (configuration not stated) | 5.47 µM
36 | Cc1cc(SCC(=O)N/N=C/c2ccc(O)c(O)c2O)c(C)cc1Br | 22.8 µM
37 | O=S(=O)(Nc1cc(Sc2cccc3cccnc23)c(O)c2ccccc12)c1ccc(F)cc1 | 57.2 µM
38 | CC(=O)NC(c1ccc(Cl)cc1Cl)c1ccc2cccnc2c1O (configuration not stated) | 40.2 µM
39 | C[CH2][Hg][S]c1ccccc1C(=O)O | 28.1 µM
40 | Cc1cc(C(=O)N/N=C/c2ccc(O)c(O)c2O)c(C)n1-c1ccccc1 | 30 µM
41 | Cc1ccc(C(C[N+](=O)[O-])c2c(-c3ccccc3O)[nH][nH]c2=O)cc1 (configuration not stated) | 39.2 µM
42 | Nc1ncn(C2O[C@H](CO)[C@@H](O)[C@H]2O)c(=O)n1 (some centres not stated) | 13.2 µM

Row | SMILES | IC50
43 | COc1c(F)c(F)cc2c(=O)c(C(=O)O)cn(C3CC3)c12 | 66.3 µM
44 | OCCN1CCN(Cc2cc(Cl)c3cccnc3c2O)CC1 | 104 µM
45 | O=C(N/N=C/c1ccc(O)cc1O)C(=O)N/N=C/c1ccc(O)cc1O | 51 µM
46 | CCn1cc(C(=O)O)c(=O)c2cc(F)c(N3CCN(C(=S)Nc4ccccc4OC)CC3)cc21 | 22 µM
47 | O=C1C(SCCO)=C(SCCO)C(=O)c2ccccc21 | 64.9 µM
48 | O=C1NN(c2ccccc2)C(=O)/C1=C\c1coc2ccc(O)cc2c1=O | 81.9 µM
49 | NC1=NC[C@H](c2ccccc2)N1CCCCC1CCCCC1 | 66 µM
50 | O=[N+]([O-])c1cc(Cl)c(O)c2ncccc12 | 5.99 µM
51 | CCc1ccc(CNc2ccc(O)cc2)cc1 | 94.9 µM
52 | O=C(C[n+]1cccc(CNC(=O)c2ccc(OC(F)F)cc2)c1)Nc1ccc(SC(F)F)cc1 | 96.3 µM
53 | CCn1cc(C(=O)O)c(=O)c2cc(F)c(N3CCN(C(=S)NC(=O)c4c(OC)cccc4OC)CC3)cc21 | 62.8 µM
54 | CNC[C@H](CC1CCCCC1)NC[C@H](Cc1ccccc1)NCCC12CC3CC(CC(C3)C1)C2 | 19.6 µM
55 | O=[N+]([O-])c1ccc(O)c(/C=N/Nc2ccccn2)c1 | 12.5 µM
56 | CCNC(=S)NNC(=O)c1ccccn1 | 33.7 µM
57 | O=C(Nc1ccccc1)Nc1ncc([N+](=O)[O-])s1 | 53.4 µM
58 | O=C(C[n+]1cc(-c2ccc(Cl)cc2)n2c1CCC2)Nc1nc(-c2ccc(F)cc2)cs1 | 68.2 µM
59 | CC(=O)Oc1cc2cccc(OC(C)=O)c(=O)c2c(OC(C)=O)c1OC(C)=O | 17.7 µM
60 | CC(C)Oc1ccc(Cc2cnc(N)nc2N)cc1 | 54.2 µM
61 | CCC(C)N1CCC2(CC1)N=c1c(c3c4c5c(C)c(O)c3c(O)c1=NC(=O)C(C)=CC=C[C@H](C)[C@H](O)[C@@H](C)[C@@H](O)[C@@H](C)[C@H](OC(C)=O)[C@H](C)[C@@H](OC)C=CO[C@@](C)(O5)C4=O)N2 (some centres not stated) | 3.03 µM
62 | CN(C)S(=O)(=O)c1cccc(NC(=S)N/N=C/c2cc(Br)ccc2O)c1 | 54.7 µM
63 | CCn1cc(C(=O)O)c(=O)c2cnc(N3CCNCC3)nc21 | 58.4 µM

Row | SMILES | IC50
64 | O=C1c2ccccc2NC(c2ccc(-c3ccc(Br)cc3)o2)N1O (configuration not stated) | 53 µM
65 | O=C1OC(/C(=C\Nc2ccc(F)cc2F)[N+](=O)[O-])c2ccccc21 (configuration not stated) | 18.2 µM
66 | CCCCCCCNC(=O)C1(CC2CC(c3cccc(Br)c3)=NO2)CCNCC1 (configuration not stated) | 58.7 µM
67 | Oc1c(CN2CCCCC2)cc(COCc2ccccc2)c2cccnc12 | 85.6 µM
68 | Oc1c(CN2CCN(c3ccc(F)cc3)CC2)cc(Cl)c2cccnc12 | 32 µM
69 | Oc1cc(Cl)ccc1Oc1ccc(Cl)cc1Cl | 0.68 µM
70 | CN1CCN(C(c2ccccn2)c2cc(Cl)c3cccnc3c2O)CC1 (configuration not stated) | 67.3 µM
71 | COC1C(OC(=O)c2ccc(C)[nH]2)C(O)C(Oc2ccc3c(O)c(NC(=O)c4ccc(O)c(CC=C(C)C)c4)c(=O)oc3c2Cl)OC1(C)C (configuration not stated) | 19.3 µM
72 | CCCCCOc1ccc(Br)cc1CSC(=N)N | 41.4 µM
73 | NC(Cc1cc(O)c(O)cc1O)C(=O)O (configuration not stated) | 93 µM
74 | O=S(=O)(Nc1cc(Sc2ncn[nH]2)c(O)c2ccccc12)c1ccccc1 | 149 µM
75 | CCC(C)NC(=O)c1cn(CC)c2cc(N3CCN(C)CC3)c(F)cc2c1=O (configuration not stated) | 59 µM
76 | CCn1cc(C(=O)NCCCN(C)C)c(=O)c2cc(F)c(N3CCN(C)CC3)cc21 | 64.3 µM
77 | CN(C)c1ccc(O)c2c1CC1CC3[C@@H](N(C)C)C(=O)C(C(N)=O)=C(O)[C@]3(O)C(=O)C1=C2O (some centres not stated) | 1.54 µM
78 | CNc1nc(NCc2ccccc2)c2ccccc2n1 | 96.7 µM
79 | O=C1OCC(CO)(CO)N=C1NNc1ccc(Cl)c(Cl)c1 | 53.3 µM
80 | Nc1c(Cl)ncnc1N/N=C/c1ccccn1 | 32.2 µM
81 | c1ccc2c(NC3=NCCS3)cccc2c1 | 112 µM
82 | CCCCOc1ccc(Br)cc1CSC(=N)N | 97.8 µM
